# Paper PMC6112376, “Comprehensive Analyses and Prioritization of Tox21 10K Chemicals Affecting Mitochondrial Function by in-Depth Mechanistic Studies” (Environmental Health Perspectives, 2018)
# Like-named read-outs stand apart in the source and are kept apart here.
# Columns and labels:
# rat primary hepatocytes [1] = test system: rat primary hepatocytes
# HepG2 cells [2] = settings: cited from earlier work; for IC50: read-out: MMP assays IC50 (µM) qHTS-HepG2
# [3] = test system: p53 (p53-bla HCT-116 cells); assay: p53 β-lactamase reporter gene assay; type: cell-based, human; settings: 16 h incubation; mean±SD of three experiments
# [4] = test system: isolated rat liver mitochondria; assay: Oxygen consumption, Clark-type oxygen electrode; type: biochemical
# HepG2 cells [5] = assay: ROS-Glo hydrogen peroxide (ROS) assay; type: cell-based, human; settings: Homo sapiens, HepG2, 2 h, read-out: ROS (HepG2) EC50
# [6] = test system: Caenorhabditis elegans strain PE255; settings: PE255 [sur-5::luc+::gfp; rol-6(su1006)], Caenorhabditis elegans, in vivo
# [7] = test system: Nrf2/ARE (ARE-bla HepG2 cells); assay: ARE β-lactamase reporter gene assay; type: cell-based, human; settings: 16 h incubation, mean±SD of three experiments
# [8] = test system: Caenorhabditis elegans strain PE255; assay: In vivo C. elegans ATP status assay; settings: for minimal effective concentration: Caenorhabditis elegans, read-out: LEC LUM: lowest effect concentration for luminescence, a measure of nematode ATP content
# [9] = test system: Caenorhabditis elegans (Bristol N2); assay: C. elegans larval development and growth assay; settings: for minimal effective concentration: Caenorhabditis elegans, read-out: LEC EXT: lowest effect concentration for extinction, a measure of nematode size
# [10] = test system: Caenorhabditis elegans (Bristol N2); settings: Bristol N2 (wild type), Caenorhabditis elegans, in vivo
# HepG2 cells [11] = assay: cells; settings: Homo sapiens; for Emax: HepG2, read-out: MMP assays efficacy (%) HepG2
# rat primary hepatocytes [12] = assay: MMP assay in rat primary hepatocytes; settings: Rattus norvegicus, Hepatocyte
# [13] = test system: HeLa cells expressing YFP-Parkin; assay: Parkin translocation assay; type: cell-based, human
# hNSC = assay: MMP assay in human neural stem cells (hNSC); type: cell-based; settings: Homo sapiens, Neural stem cell, 1 h, read-out: hNSC IC50 (MMP)
# HepG2 cells [14] = assay: Intracellular ATP content (cell viability) assay; type: cell-based, human; settings: Homo sapiens, HepG2, 40 h
# [15] = HepG2, 1 h, read-out: HepG2 IC50 Galactose (MMP)
# [16] = HepG2, 1 h, read-out: HepG2 IC50 Glucose (MMP)
# [17] = HepG2, read-out: MMP assays IC50 (µM) HepG2
# [18] = 1 h, read-out: Rat hepatocytes IC50 (MMP)
# [19] = read-out: MMP assays IC50 (µM) Rat Hepatocytes
# [20] = read-out: ATP (HepG2, galactose) IC50
# [21] = read-out: ATP (HepG2, glucose) IC50
structure (smiles),measurement,setting,value
O=C1c2ccccc2C(=O)C1C(=O)C(c1ccccc1)c1ccc(Cl)cc1 (centres unmarked) [Chlorophacinone],MMP assays efficacy (%) Rat Hepatocytes,rat primary hepatocytes [1],-86±11%
same,Rat hepatocytes (efficacy) (MMP),rat primary hepatocytes [1],10.5±4.28 ( −97.8±13.3 ) %
same,MMP assays efficacy (%) qHTS-HepG2,HepG2 cells [2],-103±9%
same,IC50,HepG2 cells [2],0.64 ± 0.25 µM
same,p53 (HCT-116) EC50,[3],Inactive
same,Potential Mechanism,[4],"Uncoupler at low concentrations (0.8-4 µM), and Uncoupler + inhibitor at high concentrations (20 -100 µM)"
same,"I-ADP, % of control (O2 consumption rate)",[4]; 0.16 µM,104 (45.2) % of control
same,"I-sub, % of control (O2 consumption rate)",[4]; 0.16 µM,112 (14.7) % of control
same,"II-ADP, % of control (O2 consumption rate)",[4]; 0.16 µM,97 (66.0) % of control
same,"II-sub, % of control (O2 consumption rate)",[4]; 0.16 µM,97 (20.2) % of control
same,"I-ADP, % of control (O2 consumption rate)",[4]; 0.8 µM,95 (41.2) % of control
same,"I-sub, % of control (O2 consumption rate)",[4]; 0.8 µM,111 (14.5) % of control
same,"II-ADP, % of control (O2 consumption rate)",[4]; 0.8 µM,107 (72.3) % of control
same,"II-sub, % of control (O2 consumption rate)",[4]; 0.8 µM,125 (26.1) % of control
same,"I-ADP, % of control (O2 consumption rate)",[4]; 4 µM,97 (42.2) % of control
same,"I-sub, % of control (O2 consumption rate)",[4]; 4 µM,182 (23.9) % of control
same,"II-ADP, % of control (O2 consumption rate)",[4]; 4 µM,87 (58.8) % of control
same,"II-sub, % of control (O2 consumption rate)",[4]; 4 µM,203 (42.5) % of control
same,"I-ADP, % of control (O2 consumption rate)",[4]; 20 µM,72 (31.3) % of control
same,"I-sub, % of control (O2 consumption rate)",[4]; 20 µM,285 (37.3) % of control
same,"II-ADP, % of control (O2 consumption rate)",[4]; 20 µM,39 (26.3) % of control
same,"II-sub, % of control (O2 consumption rate)",[4]; 20 µM,150 (31.3) % of control
same,"I-ADP, % of control (O2 consumption rate)",[4]; 100 µM,21 (11.4) % of control
same,"I-sub, % of control (O2 consumption rate)",[4]; 100 µM,110 (14.8) % of control
same,"II-ADP, % of control (O2 consumption rate)",[4]; 100 µM,15 (9.9) % of control
same,"II-sub, % of control (O2 consumption rate)",[4]; 100 µM,61 (13.1) % of control
same,EC50,HepG2 cells [5],41.7 µM
same,"LEC (lowest effect concentration), ATP assay",[6],< 10 µM
same,ARE (HepG2) EC50,[7],Inactive
same,LUM: mean difference in luminescence (ATP content) relative to plate controls,[8]; 0.5 µM,0.2858
same,LUM: mean difference in luminescence (ATP content) relative to plate controls,[8]; 1 µM,0.2624
same,LUM: mean difference in luminescence (ATP content) relative to plate controls,[8]; 5 µM,0.9157
same,LUM: mean difference in luminescence (ATP content) relative to plate controls,[8]; 10 µM,0.9688
same,LUM: mean difference in luminescence (ATP content) relative to plate controls,[8]; 25 µM,0.9113
same,LUM: mean difference in luminescence (ATP content) relative to plate controls,[8]; 50 µM,1.406
same,LUM: mean difference in luminescence (ATP content) relative to plate controls,[8]; 75 µM,1.423
same,LUM: mean difference in luminescence (ATP content) relative to plate controls,[8]; 100 µM,1.347
same,minimal effective concentration,[8],5 µM
same,EXT: mean difference in nematode size relative to plate controls,[9]; 0.5 µM,0.2337
same,EXT: mean difference in nematode size relative to plate controls,[9]; 1 µM,0.388
same,EXT: mean difference in nematode size relative to plate controls,[9]; 5 µM,0.7901
same,EXT: mean difference in nematode size relative to plate controls,[9]; 10 µM,1.11
same,EXT: mean difference in nematode size relative to plate controls,[9]; 25 µM,1.457
same,EXT: mean difference in nematode size relative to plate controls,[9]; 50 µM,1.812
same,EXT: mean difference in nematode size relative to plate controls,[9]; 75 µM,1.667
same,EXT: mean difference in nematode size relative to plate controls,[9]; 100 µM,1.868
same,minimal effective concentration,[9],1 µM
same,"LEC (lowest effect concentration), larval growth assay",[10],< 10 µM
same,IC50,HepG2 cells [11]; [15],46.3 µM
same,IC50,HepG2 cells [11]; [16],27.1 µM
same,IC50,HepG2 cells [11]; [17],3.55 µM
same,Emax,HepG2 cells [11],109%
same,IC50,rat primary hepatocytes [12]; [18],10.5 µM
same,IC50,rat primary hepatocytes [12]; [19],4.65 ± 4.78 µM
same,Parkin recruitment,[13],Inactive
same,IC50,hNSC,12.6 µM
same,IC50,HepG2 cells [14]; [20],41.4 µM
same,IC50,HepG2 cells [14]; [21],48.2 µM
CC(C)(C)c1cc([N+](=O)[O-])cc([N+](=O)[O-])c1O [Dinoterb],MMP assays efficacy (%) Rat Hepatocytes,rat primary hepatocytes [1],-88±9%
same,Rat hepatocytes (efficacy) (MMP),rat primary hepatocytes [1],2.39±1.02 ( −105±23.8 ) %
same,MMP assays efficacy (%) qHTS-HepG2,HepG2 cells [2],-95±8%
same,IC50,HepG2 cells [2],0.48 µM
same,Potential Mechanism,[4],"Uncoupler at low concentrations (0.032-0.8 µM), and Uncoupler + inhibitor at high concentrations (4-100 µM)"
same,effect on mitochondrial respiration (in words),[4],effects similar to those of FCCP
same,uncoupler effect at (concentration) in the oxygen consumption assay,[4],0.032 µM
same,"I-ADP, % of control (O2 consumption rate)",[4]; 0.0064 µM,103 (38.3) % of control
same,"I-sub, % of control (O2 consumption rate)",[4]; 0.0064 µM,92 (9.9) % of control
same,"II-ADP, % of control (O2 consumption rate)",[4]; 0.0064 µM,105 (66) % of control
same,"II-sub, % of control (O2 consumption rate)",[4]; 0.0064 µM,99 (18.4) % of control
same,"I-ADP, % of control (O2 consumption rate)",[4]; 0.032 µM,95 (41.5) % of control
same,"I-sub, % of control (O2 consumption rate)",[4]; 0.032 µM,135 (17.7) % of control
same,"II-ADP, % of control (O2 consumption rate)",[4]; 0.032 µM,97 (65.4) % of control
same,"I-ADP, % of control (O2 consumption rate)",[4]; 0.16 µM,113 (49.2) % of control
same,"I-sub, % of control (O2 consumption rate)",[4]; 0.16 µM,206 (27.0) % of control
same,"II-ADP, % of control (O2 consumption rate)",[4]; 0.16 µM,106 (72.0) % of control
same,"II-sub, % of control (O2 consumption rate)",[4]; 0.16 µM,264 (55.1) % of control
same,"I-ADP, % of control (O2 consumption rate)",[4]; 0.8 µM,148 (64.4) % of control
same,"I-sub, % of control (O2 consumption rate)",[4]; 0.8 µM,486 (63.7) % of control
same,"II-ADP, % of control (O2 consumption rate)",[4]; 0.8 µM,102 (68.8) % of control
same,"II-sub, % of control (O2 consumption rate)",[4]; 0.8 µM,367 (76.8) % of control
same,"I-ADP, % of control (O2 consumption rate)",[4]; 4 µM,100 (43.7) % of control
same,"I-sub, % of control (O2 consumption rate)",[4]; 4 µM,320 (41.9) % of control
same,"II-ADP, % of control (O2 consumption rate)",[4]; 4 µM,58 (39.5) % of control
same,"II-sub, % of control (O2 consumption rate)",[4]; 4 µM,211 (44.0) % of control
same,"I-ADP, % of control (O2 consumption rate)",[4]; 20 µM,69 (30.1) % of control
same,"I-sub, % of control (O2 consumption rate)",[4]; 20 µM,239 (31.3) % of control
same,"II-ADP, % of control (O2 consumption rate)",[4]; 20 µM,11 (7.7) % of control
same,"II-sub, % of control (O2 consumption rate)",[4]; 20 µM,36 (7.6) % of control
same,"I-ADP, % of control (O2 consumption rate)",[4]; 100 µM,10 (4.9) % of control
same,"I-sub, % of control (O2 consumption rate)",[4]; 100 µM,23 (5.0) % of control
same,"II-ADP, % of control (O2 consumption rate)",[4]; 100 µM,5 (3.1) % of control
same,"II-sub, % of control (O2 consumption rate)",[4]; 100 µM,13 (4.4) % of control
same,EC50,HepG2 cells [5],13.2 µM
same,"LEC (lowest effect concentration), ATP assay",[6],< 10 µM
same,inhibitory effect at (concentration) on ATP content in the C. elegans assay,[6],1.0 µM
same,EC50,"[7]; Homo sapiens, HepG2, read-out: ARE (HepG2) EC50",0.52 ± 0.15 µM
same,minimal effective concentration,[8],1 µM
same,minimal effective concentration,[9],5 µM
same,"LEC (lowest effect concentration), larval growth assay",[10],< 10 µM
same,IC50,HepG2 cells [11]; [15],7.19 µM
same,IC50,HepG2 cells [11]; [16],7.23 µM
same,IC50,HepG2 cells [11]; [17],2.24 µM
same,Emax,HepG2 cells [11],101%
same,IC50,rat primary hepatocytes [12]; [18],2.39 µM
same,IC50,rat primary hepatocytes [12]; [19],0.76 ± 0.45 µM
same,Parkin recruitment,[13],Active
same,Parkin translocation into mitochondria (in words),[13]; 3 h,patterns similar to antimycin A and FCCP
same,IC50,hNSC,10.1 µM
same,IC50,HepG2 cells [14]; [20],22.3 µM
same,IC50,HepG2 cells [14]; [21],19.7 µM
